One series concerns abdomen skin of mice. As to conditions: 1 mg/mL, first three hours.
Another series concerns C57BL/6 mice. As to conditions: mouse, in vivo. Here is the method: Experimental designers used adriamycin, epirubicin (THP) and fluorescent dye rhodamine B as a bladder perfusion drug respectively to mix with chitosan (1% acetic acid aqueous solution) to prepare chitosan bladder perfusion drug systems. After 1 h of bladder perfusion, the bladder tissue was removed, frozen sections were prepared, the fluorescence intensity of the drug was analyzed with a confocal fluorescence microscope, and the distribution of the drug in the bladder tissue was investigated. […] In order to further investigate the biological safety of chitosan as a drug carrier for perfusion, the designers of the project perfused the mouse bladder with a 15 mg/ml chitosan aqueous solution, stopped the perfusion after 1 h, continued to raise the mice under normal feeding conditions, and recorded the mice weight. […] After dissection, the bladder of the mice in the experimental group was compared with that of the mice in the control group.
Healthy C57BL/6 mice aged 10-12 weeks were divided into three groups, 8 mice/each group. The experimental group was perfused with 15 mg/ml fluorinated chitosan or 1% chitosan in aqueous acetic acid solution for 1 h, once a week for three weeks, and the blank control group was perfused with equal volume of double distilled water. […]

A further series deals with mouse eye. As to conditions: in vivo.

Where two headings read alike, the source gives them in different places.

Source text for Balb/c mice: Balb/c mice at week 6 in the hair prohibition period were selected, and on the day before treatment, the mice in the perfluoroheptanoic acid-modified chitosan-metformin group, free metformin group, and blank control group were removed of the equivalent hair on the back and photographed as shown in the figure. Each mouse was uniformly sprayed with the drug according to its own treatment method, and the drug was given once every two days, 100 microliters each time.
Procedure for abdomen skin of mice: In vitro diffusion cell construction: the abdomen skin of mice was removed, the fat layer was shaved off, and the skin was fixed on a diffusion cell. 7.5 mL PBS was added to the diffusion cell below the skin, and 0.75 mL perfluoroheptanoic acid-modified chitosan-tranexamic acid and the same concentration of pure tranexamic acid solution were respectively added to the diffusion cell above the skin.
Measurement of tranexamic acid penetration rate: 500 μL of PBS was removed from the bottom of the diffusion cell at 0, 1, and 3 h and the same volume of PBS was supplemented. The content of tranexamic acid was detected under the following HPLC conditions: methanol and 0.05 mol/L KH2PO4-0. 2% H3PO4 solution (volume ratio 5:95) as mobile phase, flow rate 1.0 mL/min, and detection wavelength 210 nm, and the cumulative penetration was calculated.
Procedure for mouse eye: In order to evaluate the penetrating ability for the cornea, the cornea was subjected to immunofluorescence staining at different time points to observe the penetrating ability. Samples were taken 5 min, 15 min, 30 min, and 60 min after the drug with perfluoroheptanoic acid-modified chitosan was applied. Frozen sections were prepared, and the nuclei of the sections were stained and observed under a confocal microscope as shown in FIG. 4-7. Herein, the red is the fluorescence of the protein label, and the blue is the nucleus of the eye tissue.

As for `CN(C)C(=N)N=C(N)N` [Metformin, metformin], the “hair growth on the back” value in the series on Balb/c mice (Day 0), in the series with Balb/c mice (Day 11), in the series on Balb/c mice (Day 13) and in the series with Balb/c mice (Day 17) was “No hair” in each case.

Turning to `NC[C@H]1CC[C@H](C(=O)O)CC1` [pure tranexamic acid, tranexamic acid], the “cumulative penetration of tranexamic acid” value in the series on abdomen skin of mice is recorded as “substantially does not penetrate”.

For the compound chitosan, in the series with C57BL/6 mice, the “bladder HE staining and CD45 and Ki67 immunofluorescence” value was “severe inflammatory stress and congestion and edema”; the “bladder HE staining and CD45 and Ki67 immunofluorescence, mucosal and epithelial damage” value was “severe inflammatory stress and congestion and edema”.

Take “free protein: bovine serum albumin labeled Cy5.5 without fluorine-containing chitosan”: the “penetration into the corneal epithelial cells” value with mouse eye was “substantially does not enter”.

Values taken from US20220273806A1, “USE OF FLUORINE-CONTAINING COMPOUND-MODIFIED CATIONIC POLYMER AS DRUG CARRIER AND PREPARATION METHOD” (SOOCHOW UNIVERSITY, priority 2020, published 2022).
